30 compounds from patent US20260374754A1, “N-((ISOQUINOLIN-6-YL)METHYL)-1H-PYRAZOLE-4-CARBOXAMIDE DERIVATIVES AS PLASMA KALLIKREIN INHIBITORS FOR THE TREATMENT OF HEREDITARY ANGIODEMA” (Takeda Pharmaceutical Company Limited, priority 2022, published 2026) can be followed below.

Where a name gives a salt, the structure may show the parent alone.

Sequence of human activated kallikrein enzyme (P03952 391-638 limits assumed): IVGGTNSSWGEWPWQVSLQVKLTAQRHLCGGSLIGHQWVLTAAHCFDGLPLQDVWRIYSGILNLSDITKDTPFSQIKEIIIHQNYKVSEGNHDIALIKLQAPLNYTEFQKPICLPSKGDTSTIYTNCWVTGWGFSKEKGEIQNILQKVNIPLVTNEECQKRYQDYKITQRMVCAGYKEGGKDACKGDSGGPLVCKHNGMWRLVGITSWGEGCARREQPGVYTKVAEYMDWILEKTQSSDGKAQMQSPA
Sequence of human activated kallikrein enzyme (P03952 20-390 partner limits assumed): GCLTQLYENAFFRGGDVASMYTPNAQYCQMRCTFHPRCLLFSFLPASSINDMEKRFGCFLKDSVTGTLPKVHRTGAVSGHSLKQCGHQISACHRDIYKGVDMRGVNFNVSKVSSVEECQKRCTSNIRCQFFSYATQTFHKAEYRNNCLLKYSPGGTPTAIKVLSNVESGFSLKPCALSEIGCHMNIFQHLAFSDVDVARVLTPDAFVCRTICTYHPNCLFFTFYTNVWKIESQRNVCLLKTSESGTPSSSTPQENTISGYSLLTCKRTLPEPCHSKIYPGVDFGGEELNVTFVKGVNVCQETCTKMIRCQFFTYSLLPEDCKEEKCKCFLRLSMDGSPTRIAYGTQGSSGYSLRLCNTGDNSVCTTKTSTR

This test addresses human activated kallikrein enzyme (Homo sapiens, UniProt P03952). Briefly: Inhibition of human activated plasma kallikrein, fluorogenic PFR-AMC substrate, 500 pM enzyme format. Type of test: biochemical. To be noted: 500 pM activated kallikrein; 300 μM PFR-AMC; 30 min preincubation; 10 min room temperature; pH 7.5; read-out: Primary Dose Response Assay: Average EC50. The procedure, abridged: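 Using fluorogenic PFR-AMC at 300 μM, cleavage by 500 pM human activated kallikrein ran 10 min at room temperature, read at 460 nm emission (380 nm excitation). Enzyme and compounds were first preincubated 30 min in 20 mM Tris pH 7.5, 150 mM NaCl, 1 mM EDTA, 0.1% PEG-400, 0.1% Triton X-100.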
As for `Cc1cc2c(N)nccc2c(C)c1CNc1ncccc1NCc1cn2cc(C3CC3)ccc2n1` [Example 506, N^2-((1-amino-5,7-dimethylisoquinolin-6-yl)methyl)-N^3-((6-cyclopropylimidazo[1,2-a]pyridin-2-yl)methyl)pyridine-2,3-diamine], the EC50 lay within 10 to 100 nM.

For the compound `Cc1cc2c(N)nccc2c(C)c1CNC(=O)c1cnn(Cc2nc3ccccc3s2)c1` [Example 76, N-((1-amino-5,7-dimethylisoquinolin-6-yl)methyl)-1-(benzo[d]thiazol-2-ylmethyl)-1H-pyrazole-4-carboxamide], the EC50 fell in the range of 10 to 100 nM.

For `COc1ccnc2ccc(CNc3cc(NCc4c(C)cc5c(N)nccc5c4C)ncn3)cc12` [Example 323, N^4-((1-amino-5,7-dimethylisoquinolin-6-yl)methyl)-N^6-((4-methoxyquinolin-6-yl)methyl)pyrimidine-4,6-diamine], the EC50 was 1 to 10 nM.

`Cc1cc2c(N)nccc2c(C)c1CNC(=O)c1cnn(Cc2ccc(CC(=O)N(C)c3ccccc3)cc2)c1` [Example 228, N-((1-amino-5,7-dimethylisoquinolin-6-yl)methyl)-1-(4-(2-(methyl(phenyl)amino)-2-oxoethyl)benzyl)-1H-pyrazole-4-carboxamide]: the EC50 was 1 to 10 nM.

Take `Cc1cc2c(N)nccc2c(C)c1CNC(=O)c1cnn(Cc2ccc3nc(C)c(C)nc3c2)c1` [Example I-464, N-((1-amino-5,7-dimethylisoquinolin-6-yl)methyl)-1-((2,3-dimethylquinoxalin-6-yl)methyl)-1H-pyrazole-4-carboxamide]: the EC50 is less than 1 nM.

With `Cc1cc2c(N)nccc2c(C)c1CNc1cc(NCc2ccc(C3CC3)cc2)ncn1` [Example 339, N^4-((1-amino-5,7-dimethylisoquinolin-6-yl)methyl)-N^6-(4-cyclopropylbenzyl)pyrimidine-4,6-diamine], the EC50 lay in the range of 10 to 100 nM.

With `Cc1cc2c(N)nccc2c(C)c1CNc1cc(NCc2ccc3ncc(Cl)cc3c2)ncn1` [Example 309, N^4-((1-amino-5,7-dimethylisoquinolin-6-yl)methyl)-N^6-((3-chloroquinolin-6-yl)methyl)pyrimidine-4,6-diamine], the EC50 is less than 1 nM.

Consider `COc1nc2ccccc2cc1Cn1cc(C(=O)NCc2c(C)cc3c(N)nccc3c2C)cn1` [Example 67, N-((1-amino-5,7-dimethylisoquinolin-6-yl)methyl)-1-((2-methoxyquinolin-3-yl)methyl)-1H-pyrazole-4-carboxamide], for which the EC50 fell in the range of 1 to 10 nM.

As for `Cc1cc2c(N)nccc2c(C)c1CNc1cc(NCc2ccccc2)ncn1` [Example 341, N^4-((1-amino-5,7-dimethylisoquinolin-6-yl)methyl)-N^6-benzylpyrimidine-4,6-diamine], the EC50 lay in the range of 100 to 1000 nM.

With `CCCCc1cc(COc2cc(NCc3c(C)cc4c(N)nccc4c3C)ncn2)cc2cc(Cl)cnc12` [Example 402, 6-(((6-((8-butyl-3-chloroquinolin-6-yl)methoxy)pyrimidin-4-yl)amino)methyl)-5,7-dimethylisoquinolin-1-amine], the EC50 is 100 to 1000 nM.

Regarding `Cc1cc2c(N)nccc2c(C)c1CNc1cc(NCc2ccc3c(-n4cccn4)cccc3c2)ncn1` [Example 246, N4-((5-(1H-pyrazol-1-yl)naphthalen-2-yl)methyl)-N6-((1-amino-5,7-dimethylisoquinolin-6-yl)methyl)pyrimidine-4,6-diamine], the EC50 is less than 1 nM.

As for `Cc1cc2c(N)nccc2c(C)c1CNc1cc(OCc2ccc3ccccc3c2)cnn1` [Example 252, 5,7-dimethyl-6-(((5-(naphthalen-2-ylmethoxy)pyridazin-3-yl)amino)methyl)isoquinolin-1-amine], the EC50 was 10 to 100 nM.

As to `Cc1cc2c(N)nccc2c(C)c1CNC(=O)c1cnn(Cc2ccc(CC(=O)N3C[C@@H]4[C@H](CF)[C@@H]4C3)cc2)c1` [Example 206, N-((1-amino-5,7-dimethylisoquinolin-6-yl)methyl)-1-(4-(2-((1R,5S,6s)-6-(fluoromethyl)-3-azabicyclo[3.1.0]hexan-3-y1)-2-oxoethyl)benzyl)-1H-pyrazole-4-carboxamide], the half-maximal effective concentration (EC50) fell in the range of 1 to 10 nM.

As to `Cc1cc2c(N)nccc2c(C)c1CNc1cc(NCc2ccc(OC3(C(=O)N(C)C)CC3)cc2)ncn1` [Example 357, 1-(4-( ((6-(((1-amino-5,7-dimethylisoquinolin-6-yl)methyl)amino)pyrimidin-4-yl)amino)methyl)phenoxy)-N,N-dimethylcyclopropane-1-carboxamide, formic acid salt], the EC50 lay within 10 to 100 nM.

`Cc1cc2c(N)nccc2c(C)c1CNc1cc(NCc2ccc(Cn3cccn3)cc2)cnn1` [Example 447, N^5-(4-((1H-pyrazol-1-yl)methyl)benzyl)-N^3-((1-amino-5,7-dimethylisoquinolin-6-yl)methyl)pyridazine-3,5-diamine]: the EC50 is less than 1 nM.

Consider `CC(=O)Nc1nccc2cc(C)c(CNc3cc(NCc4ccc(Cn5ccccc5=O)cc4)ncn3)c(C)c12` [Example 247, N-(6,8-dimethyl-7-(((6-((4-((2-oxopyridin-1(2H)-yl)methyl)benzyl)amino)pyrimidin-4-yl)amino)methyl)isoquinolin-1-yl)acetamide], for which the EC50 was in the range of 1 to 10 nM.

In the case of `Cc1cc2c(N)nccc2c(C)c1CNc1cc(OCc2cn3cc(C4CC4)ccc3n2)nc(CCC(=O)O)n1` [Example 293, 3-(4-(((1-amino-5,7-dimethylisoquinolin-6-yl)methyl)amino)-6-((6-cyclopropylimidazo[1,2-a]pyridin-2-yl)methoxy)pyrimidin-2-yl)propanoic acid], the EC50 is less than 1 nM.

`Cc1cc2c(N)nccc2c(C)c1CNc1cc(NCc2ccc(Oc3ccccn3)cc2)ncn1` [Example 361, N^4-((1-amino-5,7-dimethylisoquinolin-6-yl)methyl)-N^6-(4-(pyridin-2-yloxy)benzyl)pyrimidine-4,6-diamine]: the EC50 was in the range of 1 to 10 nM.

`Cc1cnc2cc(CNc3cc(NCc4c(C)cc5c(N)nccc5c4C)ncn3)ccc2c1` [Example 311, N^4-((1-amino-5,7-dimethylisoquinolin-6-yl)methyl)-N^6-((3-methylquinolin-7-yl)methyl)pyrimidine-4,6-diamine]: the EC50 was in the range of 1 to 10 nM.

`Cc1cc2c(N)nccc2c(C)c1CNC(=O)c1cnn(Cc2ccc(CC(=O)N3C[C@@H]4[C@H](C3)[C@@H]4C(=O)O)cc2)c1` [Example 210, (1R,5S,6s)-3-(2-(4-((4-(((1-amino-5,7-dimethylisoquinolin-6-yl)methyl)carbamoyl)-1H-pyrazol-1-yl)methyl)phenyl)acetyl)-3-azabicyclo[3.1.0]hexane-6-carboxylic acid]: the EC50 lay in the range of 1 to 10 nM.

Turning to `Cc1cc2c(N)nccc2c(C)c1CNc1cc(OCc2ccc(Cn3cccn3)cn2)cnn1` [Example 446, 6-(((5-((5-((1H-pyrazol-1-yl)methyl)pyridin-2-yl)methoxy)pyridazin-3-yl)amino)methyl)-5,7-dimethylisoquinolin-1-amine], the EC50 is less than 1 nM.

Take `Cc1cc(Cn2cc(C(=O)NCc3c(C)cc4c(N)nccc4c3C)cn2)cc(C)c1CC(=O)N(C)C` [Example 20, N-((1-amino-5,7-dimethylisoquinolin-6-yl)methyl)-1-(4-(2-(dimethylamino)-2-oxoethyl)-3,5-dimethylbenzyl)-1H-pyrazole-4-carboxamide]: the EC50 was less than 1 nM.

For the compound `Cc1cc2c(N)nccc2c(C)c1CNC(=O)c1cnn(Cc2cc3c(Cl)cccc3s2)c1` [Example 62, N-((1-amino-5,7-dimethylisoquinolin-6-yl)methyl)-1-((4-chlorobenzo[b]thiophen-2-yl)methyl)-1H-pyrazole-4-carboxamide], the EC50 lay within 1 to 10 nM.

As for `Cc1cc2c(N)nccc2c(C)c1CNc1cc(OCc2ccc3ncc(C(F)(F)F)cc3c2)cnn1` [Example 423, 5,7-dimethyl-6-(((5-((3-(trifluoromethyl)quinolin-6-yl)methoxy)pyridazin-3-yl)amino)methyl)isoquinolin-1-amine], the EC50 was less than 1 nM.

For `Cc1cc2nc(Cn3cc(C(=O)NCc4c(C)cc5c(N)nccc5c4C)cn3)cn2cc1Br` [Example 135, N-((1-amino-5,7-dimethylisoquinolin-6-yl)methyl)-1-((6-bromo-7-methylimidazo[1,2-a]pyridin-2-yl)methyl)-1H-pyrazole-4-carboxamide], the EC50 was less than 1 nM.

As for `Cc1cc2c(N)nccc2c(C)c1CNc1cn2c(Cc3ccc4ccccc4c3)ncc2cn1` [Example 523, 5,7-dimethyl-6-(((3-(naphthalen-2-ylmethyl)imidazo[1,5-a]pyrazin-6-yl)amino)methyl)isoquinolin-1-amine], the EC50 is greater than 1000 nM.

With `Cc1cc2c(N)nccc2c(C)c1CNC(=O)c1cnn(Cc2ccc3cnn(C)c3c2)c1` [Example 59, N-((1-amino-5,7-dimethylisoquinolin-6-yl)methyl)-1-((1-methyl-1H-indazol-6-yl)methyl)-1H-pyrazole-4-carboxamide], the EC50 lay within 1 to 10 nM.

For `Cc1cc2c(N)nccc2c(C)c1CNC(=O)c1cnn(Cc2ccc(Cc3cccn4ccnc34)cc2)c1` [Example 167, N-((1-amino-5,7-dimethylisoquinolin-6-yl)methyl)-1-(4-(imidazo[1,2-a]pyridin-8-ylmethyl)benzyl)-1H-pyrazole-4-carboxamide], the EC50 was less than 1 nM.

`Cc1cc2c(N)nccc2c(C)c1CNc1cc(NCc2ccc3ncc(C(F)(F)F)cc3c2)ncn1` [Example 312, N^4-((1-amino-5,7-dimethylisoquinolin-6-yl)methyl)-N^6-((3-(trifluoromethyl)quinolin-6-yl)methyl)pyrimidine-4,6-diamine]: the EC50 was less than 1 nM.

As for `Cc1cc2c(N)nccc2c(C)c1CNC(=O)c1cnn(Cc2ccc(N(C)C(=O)N3CCCC3)cc2)c1` [Example 21, N-((1-amino-5,7-dimethylisoquinolin-6-yl)methyl)-1-(4-(N-methylpyrrolidine-1-carboxamido)benzyl)-1H-pyrazole-4-carboxamide], the EC50 was in the range of 1 to 10 nM.
